Reference: patent US20260317340A1, “COMPOUNDS, COMPOSITIONS, AND METHODS OF TREATING DISORDERS” (Chengdu Anticancer Bioscience, Ltd., priority 2023, published 2026)
Read-outs that look alike come from different tables or passages of the source.

Experiments:
RPE-Neo or RPE-MYC cells = assay: MTT assay of cellular proliferation (proliferative arrest); assay type: cell-based; conditions: read-out: Min. Effective conc. for Proliferative arrest (>50%)
Method: (§1) Human cancer cell lines were obtained from ATCC and cultured in DMEM (Gibco, Cleveland, TN, USA) supplemented with 5% fetal bovine serum (Gibco), penicillin (100 U/mL)-streptomycin (100 μg/mL) (Gibco, Cat. No. 15140-122), 2 mM L-glutamine (Gibco, 200 mM solution, Cat. No. 25030081), and 1 mM sodium pyruvate (Gibco, 100 mM solution, Cat. No. 11360070) at 37° C. in a humidified incubator that was maintained at 5% CO2.
Screening was conducted as described before (Li et al. 2019). Briefly, RPE-Neo or RPE-MYC or RPE-MYC expressing an EGFP-Histone 2B fusion protein were passaged as batches of 96-well plates, 18-24 hours before exposure to the chemical compounds of the present disclosure at concentrations from 20 nM to 20 μM. At 24, 48 or 72 hours after initiation of treatment, cells were analyzed for either an arrest in mitosis or a change in DNA content by GE IN-Cell Analyzer 2000. MTT assays of cellular proliferation were performed as previously described (Li et al. 2019). […]
(§2) As set forth in table 2 below, an values of greater than or equal to 1 nM and less than or equal to 1.0 μM is marked “A”; a value greater than 1.00 μM and less than or equal to 10.0 μM is marked “B”; a value greater than 10.0 μM and less than or equal to 30.0 μM is marked “C”; and a value greater than 30.0 μM and less than 1000 μM is marked “D.”

[1] = test system: RPE-Neo or RPE-MYC or RPE-MYC expressing an EGFP-Histone 2B fusion protein; assay: Phenotypic screening assay: arrest in mitosis, change in DNA content (polyploidy), cell death; assay type: cell-based; conditions: 20 nM to 20 μM, 24, 48 or 72 hours
Method: as §1
Screening was conducted as described before (Li et al. 2019). Briefly, RPE-Neo or RPE-MYC or RPE-MYC expressing an EGFP-Histone 2B fusion protein were passaged as batches of 96-well plates, 18-24 hours before exposure to the chemical compounds of the present disclosure at concentrations from 20 nM to 20 μM. At 24, 48 or 72 hours after initiation of treatment, cells were analyzed for either an arrest in mitosis or a change in DNA content by GE IN-Cell Analyzer 2000. MTT assays of cellular proliferation were performed as previously described (Li et al. 2019).
as §2

[2] = read-out: Min. Effective conc. for Along with Cell Death
[3] = ≥5%, read-out: Min. Effective conc. for Mitotic Arrest (≥5%)
[4] = ≥5%, read-out: Min. Effective conc. for Polyploidy (≥5%)

| Compound | minimal effective concentration (RPE-Neo or RPE-MYC cells) | minimal effective concentration [1, 2] | minimal effective concentration [1, 3] | minimal effective concentration [1, 4] |
| --- | --- | --- | --- | --- |
| Cc1ccc(CN2C(=O)CC(c3nnc(C4CC4)o3)=C(Br)c3scc(C)c32)cc1F [Compound 1, 8-Bromo-7-(5-cyclopropyl-1,3,4-oxadiazol-2-yl)-4-(3-fluoro-4-methylbenzyl)-3-methyl-4,6-dihydro-5H-thieno[3,2-b]azepin-5-one] | 0.001 to 1 µM | 0.001 to 1 µM | 0.001 to 1 µM | 0.001 to 1 µM |
| COc1ccc(CN2C(=O)CC(c3ncc(C)o3)=Cc3ccc(-c4cnn(C5(CC#N)CN(S(C)(=O)=O)C5)c4)cc32)cc1 [Compound 87, 2-(3-(4-(1-(4-Methoxybenzyl)-4-(5-methyloxazol-2-yl)-2-oxo-2,3-dihydro-1H-benzo[b]azepin-8-yl)-1H-pyrazol-1-yl)-1-(methylsulfonyl)azetidin-3-yl)acetonitrile] | 0.001 to 1 µM | 0.001 to 1 µM | 0.001 to 1 µM | 0.001 to 1 µM |
| COc1ccc(C(=O)N2CCC(c3ncc(C)o3)=Cc3ccc(-c4cnn(CC(C)(C)O)c4)cc32)cc1 [Compound 104, (8-(1-(2-Hydroxy-2-methylpropyl)-1H-pyrazol-4-yl)-4-(5-methyloxazol-2-yl)-2,3-dihydro-1H-benzo[b]azepin-1-yl) (4-methoxyphenyl)methanone] | 0.001 to 1 µM | 0.001 to 1 µM | 0.001 to 1 µM | 0.001 to 1 µM |
| COc1ccc(CN2C(=O)CC(c3ncc(C)o3)=Cc3ccc(-c4cnn(CC(C)(C)O)c4)cc32)cc1F [Compound 102, 1-(3-fluoro-4-methoxybenzyl)-8-(1-(2-hydroxy-2-methylpropyl)-1H-pyrazol-4-yl)-4-(5-methyloxazol-2-yl)-1,3-dihydro-2H-benzo[b]azepin-2-one] | 0.001 to 1 µM | 0.001 to 1 µM | 0.001 to 1 µM | 0.001 to 1 µM |
| COc1ccc(CN2C(=O)CC(c3ncc(C)o3)=Cc3ccc(N)cc32)cc1 [Compound 26, 8-amino-1-(4-methoxybenzyl)-4-(5-methyloxazol-2-yl)-1,3-dihydro-2H-benzo[b]azepin-2-one] | 0.001 to 1 µM | 0.001 to 1 µM | 0.001 to 1 µM | 0.001 to 1 µM |
| COc1ccc(CN2C(=O)CC(c3ncc(C)o3)=Cc3ccc(-c4cnn(C(C)C(=O)O)c4)cc32)cc1 (centres unmarked) [Compound 75, 2-(4-(1-(4-Methoxybenzyl)-4-(5-methyloxazol-2-yl)-2-oxo-2,3-dihydro-1H-benzo[b]azepin-8-yl)-1H-pyrazol-1-yl)propanoic acid] | 1 to 10 µM | 1 to 10 µM | 1 to 10 µM | 1 to 10 µM |
| COc1ccc(CN2C(=O)CC(c3ncc(C)o3)=Cc3ccc(-c4cnn(C5CC5)c4)cc32)cc1 [Compound 34, 8-(1-cyclopropyl-1H-pyrazol-4-yl)-1-(4-methoxybenzyl)-4-(5-methyloxazol-2-yl)-1,3-dihydro-2H-benzo[b]azepin-2-one] | 0.001 to 1 µM | 0.001 to 1 µM | 0.001 to 1 µM | 0.001 to 1 µM |
| COc1ccc(CN2C(=O)CC(c3nnc(C)o3)=Cc3ccc(-c4cnn(CC(C)(C)O)c4)cc32)cc1 [Compound 93, 8-(1-(2-Hydroxy-2-methylpropyl)-1H-pyrazol-4-yl)-1-(4-methoxybenzyl)-4-(5-methyl-1,3,4-oxadiazol-2-yl)-1,3-dihydro-2H-benzo[b]azepin-2-one] | 0.001 to 1 µM | 0.001 to 1 µM | 0.001 to 1 µM | 0.001 to 1 µM |
| COc1ccc(CN2C(=O)CC(c3ncc(C)o3)=Cc3ccc(-c4cnn(C)c4)cc32)cc1 [Compound 30, 1-(4-methoxybenzyl)-8-(1-methyl-1H-pyrazol-4-yl)-4-(5-methyloxazol-2-yl)-1,3-dihydro-2H-benzo[b]azepin-2-one] | 0.001 to 1 µM | 0.001 to 1 µM | 0.001 to 1 µM | 0.001 to 1 µM |
| COc1ccc(CN2C(=O)CC(c3ncc(C)o3)=Cc3ccc(-c4cnn(C5CCOCC5)c4)cc32)cc1 [Compound 49, 1-(4-methoxybenzyl)-4-(5-methyloxazol-2-yl)-8-(1-(tetrahydro-2H-pyran-4-yl)-1H-pyrazol-4-yl)-1,3-dihydro-2H-benzo[b]azepin-2-one] | 0.001 to 1 µM | 0.001 to 1 µM | 0.001 to 1 µM | 0.001 to 1 µM |
| COc1ccc(CN2C(=O)CC(c3ncc(C)o3)=Cc3ccc(-c4ccoc4)cc32)cc1 [Compound 29, 8-(furan-3-yl)-1-(4-methoxybenzyl)-4-(5-methyloxazol-2-yl)-1,3-dihydro-2H-benzo[b]azepin-2-one] | 0.001 to 1 µM | 0.001 to 1 µM | 0.001 to 1 µM | 0.001 to 1 µM |
| CCc1ccc(CN2C(=O)CC(c3nnc(C4CC4)o3)=C(Br)c3ccccc32)cc1 [Compound 6, 5-Bromo-4-(5-cyclopropyl-1,3,4-oxadiazol-2-yl)-1-(4-ethylbenzyl)-1,3-dihydro-2H-benzo[b]azepin-2-one] | 0.001 to 1 µM | 0.001 to 1 µM | 0.001 to 1 µM | 0.001 to 1 µM |
| COc1ccc(CN2C(=O)CC(c3ncc(C)o3)=Cc3ccc(-c4cnc(N)nc4)cc32)cc1 [Compound 47, 8-(2-aminopyrimidin-5-yl)-1-(4-methoxybenzyl)-4-(5-methyloxazol-2-yl)-1,3-dihydro-2H-benzo[b]azepin-2-one] | 0.001 to 1 µM | 0.001 to 1 µM | 0.001 to 1 µM | 0.001 to 1 µM |
| COc1ccc(CN2C(=O)CC(c3ncc(C)o3)=Cc3ccc(-c4cnn(CCN5CCCC5)c4)cc32)cc1 [Compound 64, 1-(4-methoxybenzyl)-4-(5-methyloxazol-2-yl)-8-(1-(2-(pyrrolidin-1-yl)ethyl)-1H-pyrazol-4-yl)-1,3-dihydro-2H-benzo[b]azepin-2-one] | 0.001 to 1 µM | 0.001 to 1 µM | 0.001 to 1 µM | 0.001 to 1 µM |
| CNC(=O)Cn1cc(-c2ccc3c(c2)N(Cc2ccc(OC)cc2)C(=O)CC(c2ncc(C)o2)=C3)cn1 [Compound 67, 2-(4-(1-(4-Methoxybenzyl)-4-(5-methyloxazol-2-yl)-2-oxo-2,3-dihydro-1H-benzo[b]azepin-8-yl)-1H-pyrazol-1-yl)-N-methylacetamide] | 0.001 to 1 µM | 0.001 to 1 µM | 0.001 to 1 µM | 0.001 to 1 µM |
| COc1ccc(CN2C(=O)CC(c3ncc(C)o3)=Cc3ccc(-c4cnn(C(C)(C)CO)c4)cc32)cc1 [Compound 56, 8-(1-(1-hydroxy-2-methylpropan-2-yl)-1H-pyrazol-4-yl)-1-(4-methoxybenzyl)-4-(5-methyloxazol-2-yl)-1,3-dihydro-2H-benzo[b]azepin-2-one] | 0.001 to 1 µM | 0.001 to 1 µM | 0.001 to 1 µM | 0.001 to 1 µM |
| COc1ccc(CN2C(=O)CC(c3ncc(C)o3)=Cc3ccc(-c4cnn(C(C)C(N)=O)c4)cc32)cc1 (centres unmarked) [Compound 72] | 0.001 to 1 µM | 0.001 to 1 µM | 0.001 to 1 µM | 0.001 to 1 µM |
